Series [1] has as its system adrenergic, serotonergic receptors. Nature of the series: Receptor bonding (adrenergic, serotonergic). It counts as binding. Conditions: for Receptor bonding: result in words.
In another series the test system is Tetrabenazine. Nature of the series: Tetrabenazine antagonism (ptosis alleviation, mouse). The series is classed as in vivo. Conditions: Table 1.
Series [2] concerns isolated one-day-old chicks. Nature of the series: chick call test (distress call activation in isolated chicks). It counts as in vivo. Conditions: for ED150: Gallus gallus, ip. From the text: The call frequency of isolated one-day-old chicks which decreases during the course of the test is taken as an experimental behavioural model for manifestations of resignation in depression. […] Neurol. Psychiat.

A further series relates to cholinergic function. Nature of the series: Effect on cholinergic function. Conditions: result in words.
Another series in a line: LD50, mouse, oral route. Conditions: in vivo, by oral route.

Where only a bound is given, the exact number is not on record here.

For “1-acetamido-2-pyrrolidinone [Compound B, reference compound]”, the Receptor bonding result in series [1] is “none”. Besides, the Tetrabenazine antagonism (ptosis alleviation, mouse) with Tetrabenazine is greater than 640 mg/kg. In addition, the “Chick call test ED150” value in series [2] (i.p., Table 1) is listed as greater than 160 mg/kg. Moreover, the “Effect on cholinergic function” value in the series with cholinergic function is on record as “none”.
`O=C1CC(CN2CCOCC2)CN1Cc1ccc(F)cc1` (centres unmarked) [1-(4-Fluorobenzyl)-4-(morpholinomethyl)-pyrrolidin-2-one] displayed an ED150 in series [2] (Table II) of 80 mg/kg.
Compound `COc1ccc(CN2CC(CN)CC2=O)cc1` (centres unmarked) [C, 1-(4-Methoxybenzyl)-4-aminomethyl-pyrrolidin-2-one] showed an ED150 in series [2] (Table II) of 25 mg/kg.
By IC50 is commonly meant the concentration at which inhibition is half-maximal. A low value points to greater potency in that assay. Usually LD50 stands for the dose at which mortality reaches 50%. A lower LD50 goes with a more toxic substance. On to `NCC1CC(=O)N(Cc2ccccc2)C1` (centres unmarked) [Compound A, 1-benzyl-4-aminomethyl-pyrrolidin-2-one], for which, in series [1], the IC50 was greater than 10 µM and the Receptor bonding entry is given as “none”. The same compound had a Tetrabenazine antagonism (ptosis alleviation, mouse) in the series with Tetrabenazine of 100 mg/kg. The LD50 in the series “LD50, mouse, oral route” is greater than 2000 mg/kg. The compound also showed an ED150 in series [2] (Table 1) of 40 mg/kg. The “Effect on cholinergic function” value with cholinergic function is listed as “Demand”.
The compound `NCC1CC(=O)N(Cc2ccc(F)cc2)C1` (centres unmarked) [D, 1-(4-Fluorobenzyl)-4-aminomethyl-pyrrolidin-2-one] showed an ED150 in series [2] (Table II) of 20 mg/kg.
`CN1CCN(CC2CC(=O)N(Cc3ccccc3)C2)CC1` (centres unmarked) [H, 1-Benzyl-4-(N-methylpiperazinylmethyl)-pyrrolidin-2-one] displayed an ED150 in series [2] (Table II) of 18 mg/kg.
The same measure, in the same setting: the same measure for `CCN(CC)CC1CCC(=O)N1Cc1ccccc1` (centres unmarked) [J, 1-Benzyl-5-diethylaminomethyl-pyrrolidin-2-one]: 0.01 mg/kg; for `O=C1CCC(CN2CCCC2)N1Cc1ccccc1` (centres unmarked) [K, 1-Benzyl-5-pyrrolidinomethyl-pyrrolidin-2-one]: 0.1 mg/kg; for `CN(C)CC1CCC(=O)N1Cc1ccc(Cl)cc1` (centres unmarked) [L, 1-(p-chlorobenzyl)-5-dimethylaminomethyl-pyrrolidin-2-one]: 0.1 mg/kg.

The values above are taken from patent US4954516A, “Use of 1-benzyl-aminoalkyl-pyrrolidinones as antidepressants” (Boehringer Ingelheim KG, priority 1986, dated 1990).
